# Assay results from patent publication EP0027679B1, “Substituted-5-((7-chloro-4-quinolinyl)amino)-3-(amino-methyl)-(1,1'-biphenyl)-2-ol compounds; processes for their production; and pharmaceutical compositions containing the compounds” (WARNER-LAMBERT COMPANY, priority 1979, dated 1981).
# Columns and labels:
# [1] = system: chloroquine-pyrimethamine-resistant Vietnam Smith strain of P. Falciparum; test: Owl monkey infection with P. falciparum trophozoites, Vietnam Smith strain; format: in vivo, owl monkeys; details: for curative: orally at 2.0 mg/kg/day for a three day period; for cleared the parasitemia: orally at 1.0 mg/kg/day for three days
# Description: (§1) Studies were also conducted with infections resulting from inoculations of owl monkeys with trophozoites of the chloroquine-pyrimethamine-resistant Vietnam Smith strain of P. Falciparum; the chloroquine-quinine-resistant, pyrimethamine-susceptible Vietnam Oak Knoll strain of P. Falciparum; or the pyrimethamine-resistant Uganda Palo Alto strain of P. Falciparum. The test method is described in L. H. Schmidt, Trans. R. Soc. Trop. Med Hyg. 67 446 (1973).
# [2] = system: chloroquine-quinine-resistant, pyrimethamine-susceptible Vietnam Oak Knoll strain of P. Falciparum; test: Owl monkey infection with P. falciparum trophozoites, Vietnam Oak Knoll strain; format: in vivo, owl monkeys; details: for activity relative to amodiaquine as curative agents: Oak Knoll strains of the malaria parasite; for curative / cleared the parasitemia: Vietnam Oak Knoll strain; for curative: orally at 2.0 mg/kg/day for a three day period; for activity relative to amodiaquine in clearing parasites: Oak Knoll strain; for cleared the parasitemia: orally at 1.0 mg/kg/day for three days
# Description: as §1
# [3] = system: normal drug-sensitive strain of Plasmodium berghei; test: Plasmodium berghei in mice, single subcutaneous dose 72 h post infection, mean survival time and cures; format: in vivo; details: Table I; for MST after single s.c. dose (extension of survival time over the controls): animals not cured, control MST 6.1-6.3 days; for MST after single s.c. dose: animals cured (C): five animal group
# Description: Compounds of the invention were tested against a normal drug-sensitive strain of Plasmodium berghei in mice by the parenteral route by a procedure described in J. Med. Chem., 1043 (1967). The compounds were dissolved or suspended in sesame or peanut oil and were administered to mice in a single subcutaneous dose seventy-two hours post infection. Extension of the mean survival time of the treated mice is interpreted as evidence of anti-malarial activity. Compounds are arbitrarily considered to be "active" when they produce at least a 100 percent increase in the mean survival time of treated mice. Animals that survive to sixty days are considered "cured" (termed "C" in Tables I and II). The means survival time (MST) of infected control mice ranges from 6.1-6.3 days while the numbers in parentheses in Tables I and II indicate extension of survival time over the controls as an average for those animals of the five animal group not "cured".
# [4] = system: pyrimethamine-resistant Uganda Palo Alto strain of P. Falciparum; test: Owl monkey infection with P. falciparum trophozoites, Uganda Palo Alto strain; format: in vivo, owl monkeys; details: orally at 1.0 mg/kg/day for three days
# Description: as §1
# [5] = Burckhalter article, Tables VI and XI; cited from earlier work
smiles,measurement,setting,value
"CC(C)(C)NCc1cc(Nc2cc[n+]([O-])c3cc(Cl)ccc23)cc(-c2ccc(Cl)cc2)c1O [4—Cl, H, NHC(CH3)3, 1, 4'-chloro-5-[(7-chloro-4-quinolinyl)aminoj-3-[[1,1-dimethylethyl)amino]methyl]-[1,1'-biphenyl]-2-ol-1-oxide]",curative,[1],curative
same,activity relative to amodiaquine as curative agents,[2],twenty times the activity of amodiaquine
same,curative,[2],curative
"CCN(CC)Cc1cc(Nc2ccnc3cc(Cl)ccc23)ccc1O [Amodiaquine, reference compound]",MST after single s.c. dose (extension of survival time over the controls),[3]; dose 10 (dose unit not given),5.7 days
same,MST after single s.c. dose (extension of survival time over the controls),[3]; dose 20 (dose unit not given),8.3 days
same,MST after single s.c. dose (extension of survival time over the controls),[3]; dose 40 (dose unit not given),11.9 days
same,MST after single s.c. dose: animals cured (C),[3]; dose 80 (dose unit not given),2C
same,MST after single s.c. dose: animals cured (C),[3]; dose 160 (dose unit not given),5C
same,MST after single s.c. dose: animals cured (C),[3]; dose 320 (dose unit not given),5C
same,MST after single s.c. dose: animals cured (C),[3]; dose 640 (dose unit not given),5C
CCN(CC)Cc1cc(Nc2cc[n+]([O-])c3cc(Cl)ccc23)cc(-c2ccc(Cl)cc2)c1O [Example 1],curative,[1],curative
same,activity relative to amodiaquine as curative agents,[2],twenty times the activity of amodiaquine
same,curative,[2],curative
"CCN(CC)Cc1cc(Nc2ccnc3cc(Cl)ccc23)cc(-c2ccc(Cl)cc2)c1O [Example 2, 4'-chloro-5-[(7-chloro-4-quinolinyl)amino]-3-[(diethylamino)methyl][1,1'-biphenyl]-2-ol]",MST after single s.c. dose (extension of survival time over the controls),[3]; dose 10 (dose unit not given),14.2 days
same,MST after single s.c. dose: animals cured (C),[3]; dose 10 (dose unit not given),2C
same,MST after single s.c. dose: animals cured (C),[3]; dose 20 (dose unit not given),3C
same,MST after single s.c. dose: animals cured (C),[3]; dose 40 (dose unit not given),4C
same,MST after single s.c. dose: animals cured (C),[3]; dose 80 (dose unit not given),5C
same,MST after single s.c. dose: animals cured (C),[3]; dose 160 (dose unit not given),5C
same,MST after single s.c. dose: animals cured (C),[3]; dose 320 (dose unit not given),5C
same,MST after single s.c. dose: animals cured (C),[3]; dose 640 (dose unit not given),5C
same,cleared the parasitemia,[1],cleared the parasitemia
same,activity relative to amodiaquine in clearing parasites,[2],twenty times the activity of amodiaquine
same,cleared the parasitemia,[2],cleared the parasitemia
same,cleared the parasitemia,[4],cleared the parasitemia
"CC(C)(C)NCc1cc(Nc2ccnc3cc(Cl)ccc23)cc(-c2ccc(Cl)cc2)c1O [Example 3, 4'-chloro-5-[(7-chloro-4-quinolinyl)amino]-3-[[(1,1-dimethylethyl)amino]methyl][1,1'-biphenyl]-2-ol]",cleared the parasitemia,[1],cleared the parasitemia
same,activity relative to amodiaquine in clearing parasites,[2],twenty times the activity of amodiaquine
same,cleared the parasitemia,[2],cleared the parasitemia
same,cleared the parasitemia,[4],cleared the parasitemia
C=CCc1cc(Nc2ccnc3cc(Cl)ccc23)cc(CN(CC)CC)c1O [SN-11991],quinine equivalent,[5],10
CCN(CC)Cc1cc(Nc2ccnc3cc(Cl)ccc23)cc(Cl)c1O [SN-13729],quinine equivalent,[5],12
